Reference: US9388171B2, “Serine/threonine kinase inhibitors” (Array BioPharma Inc., priority 2012, dated 2016)
Like-named read-outs stand apart in the source and are kept apart here.

Experiments:
[1] = target: human ERK-2 (Mitogen Activated Kinase 1) (Homo sapiens (Human), UniProt P28482); test: ERK-2 Enzymatic Assay; assay type: biochemical
Method: Compounds were tested in an enzymatic assay using human ERK-2 (Mitogen Activated Kinase 1), recombinantly expressed as an n-terminal 6-His fusion protein in E. coli and corresponding to a 8-360. The substrate used was the fluorescent Omnia peptide S/T17 (Invitrogen of Carlsbad, Calif.; Cat. KNZ1171C). Test compounds were diluted in DMSO in 3-fold serial dilutions at 100× final concentrations. […] The assay was run at ambient temperature in a white 384-well polypropylene plate (Nunc, Inc of Naperville, Ill.; Cat. 267462) collecting data every 50 seconds for approximately 30 minutes on an Envision plate reader (PerkinElmer, Inc. of Waltham, Mass.); Excitation 340 nm/Emission 495 nm. The data collected from each well was fit to a straight line, and the resulting rates were used to calculate percent of control. Percent of control was plotted against compound concentration, and IC50 values were determined using a four-parameter fit. Representative data is in TABLE 3 (infra).

[2] = system: PMA-stimulated P90RSK(Ser380) phosphorylation in HepG2 cells; test: Cellular P90RSK(Ser380) Phosphorylation Assay; assay type: cell-based; details: Homo sapiens, 1.5 hour compound incubation, PMA 100 ng/mL
Method: Cellular P90RSK(Ser380) Phosphorylation Assay
Inhibition of PMA-stimulated P90RSK(Ser380) phosphorylation was determined by the following in vitro cellular mechanistic assay, which comprises incubating cells with a compound for 1.5 hours and quantifying fluorescent pP90RSK(Ser380) signal on fixed cells and normalizing to GAPDH signal.
Materials and Methods: HepG2 cells were obtained from ATCC and grown in DMEM supplemented with 10% fetal bovine serum. Cells were plated in 96-well plates at 35,000 cells/well and allowed to attach overnight at 37° C./5% CO2. Diluted compounds were then added at a final concentration of 0.5% DMSO. After 1.5 hour compound incubation, cells were stimulated with the addition of PMA (phorbol 12-myristate 13-acetate) at a final concentration of 100 ng/mL; the PMA stimulation was a 30-minute incubation at 37° C./5% CO2. After the 30-minute PMA stimulation, cells were washed with PBS and fixed in 3.7% formaldehyde in PBS at room temperature for 15-20 minutes. This was followed by another wash in PBS and then permeabilization in 100% MeOH at room temperature for 10-15 minutes. Following the permeabilization incubation, cells were washed in PBS/0.05% Tween-20, followed by a block in Odyssey blocking buffer (LI-COR Biosciences) for at least 1 hour. […] Both secondary antibodies were used at a 1:1000 dilution. Cells were then washed and analyzed for fluorescence at both wavelengths using the Odyssey Infrared Imaging System (LI-COR Biosciences). Phosphorylated P90RSK(Ser380) signal was normalized to GAPDH signal.

[3] = 25 uM ATP, Omnia peptide S/T17, read-out: Erk Enzymatic Assay IC50

Sequence of human ERK-2 (Mitogen Activated Kinase 1) (P28482 8-360): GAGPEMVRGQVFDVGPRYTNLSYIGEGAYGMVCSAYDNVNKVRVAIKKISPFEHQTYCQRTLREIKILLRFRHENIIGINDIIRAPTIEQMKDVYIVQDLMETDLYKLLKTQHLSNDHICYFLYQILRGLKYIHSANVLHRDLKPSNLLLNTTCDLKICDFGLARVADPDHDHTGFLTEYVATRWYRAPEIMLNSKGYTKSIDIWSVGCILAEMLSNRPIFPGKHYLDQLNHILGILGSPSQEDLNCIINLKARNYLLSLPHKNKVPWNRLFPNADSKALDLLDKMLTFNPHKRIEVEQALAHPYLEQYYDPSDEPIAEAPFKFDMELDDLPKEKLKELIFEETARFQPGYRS

| IC50 [1, 3] [nM] | IC50 [2] [nM] | IC50 ([1]; read-out: ERK IC50) [nM] | SMILES |
| --- | --- | --- | --- |
| 2.8 | 14.8 | – | O=C(N[C@H](CO)c1ccc(Cl)c(F)c1)c1ccc2cnc(NC3CCOCC3)cc2c1 [II-12, 3-(Tetrahydro-pyran-4-ylamino)-isoquinoline-6-carboxylic acid [(S)-1-(4-chloro-3-fluoro-phenyl)-2-hydroxy-ethyl]-amide] |
| – | – | 1.27 | COc1ccc([C@H](NC(=O)c2ccc3cnc(N[C@H]4CCOC4)cc3n2)c2cnn(C)c2)cc1F (single isomer, unassigned) [I-52] |
| 2.1 | 5.96 | – | CC[C@@H](NC(=O)c1ccc2cnc(NC3CCOCC3)cc2n1)c1ccc(OC)c(F)c1 [I-6, 7-(Tetrahydro-pyran-4-ylamino)-[1,6]naphthyridine-2-carboxylic acid [(R)-1-(3-fluoro-4-methoxy-phenyl)-propyl]-amide] |
| 2.68 | 5.47 | – | COc1ccc([C@@H]2CN(C)C[C@H]2NC(=O)c2ccc3cnc(Nc4cc(C)nn4C)cc3c2)cc1 [II-64, 3-((1,3-dimethyl-1H-pyrazol-5-yl)amino)-N-((3S,4R)-4-(4-methoxyphenyl)-1-methylpyrrolidin-3-yl)isoquinoline-6-carboxamide] |
| 3.43 | 98.9 | – | O=C(NCc1ccc(Cl)c(F)c1)c1ccc2cnc(NC3CCOCC3)cc2n1 [I-11, 7-(Tetrahydro-pyran-4-ylamino)-[1,6]naphthyridine-2-carboxylic acid 4-chloro-3-fluoro-benzylamide] |
| 20.2 | 65.1 | – | C[C@@H](CO)Nc1cc2cc(C(=O)NCc3cc4c(F)cccc4[nH]3)ccc2cn1 [II-23, 3-((S)-2-Hydroxy-1-methyl-ethylamino)-isoquinoline-6-carboxylic acid (4-fluoro-1H-indol-2-ylmethyl)-amide] |
| – | 9.84 | – | Cn1nccc1Nc1cc2nc(C(=O)N[C@H](CO)c3ccc(Cl)c(F)c3)ccc2cn1 [I-8, 7-(2-Methyl-2H-pyrazol-3-ylamino)-[1,6]naphthyridine-2-carboxylic acid [(S)-1-(4-chloro-3-fluoro-phenyl)-2-hydroxy-ethyl]-amide] |
| 2.5 | 8.5 | – | CC[C@@H](NC(=O)c1ccc2cnc(NC3CCOCC3)cc2c1)c1ccc(Cl)c(F)c1 [II-2, 3-(Tetrahydro-pyran-4-ylamino)-isoquinoline-6-carboxylic acid [(R)-1-(4-chloro-3-fluoro-phenyl)-propyl]-amide] |
| 1.15 | 37.8 | – | COc1ccc([C@H](NC(=O)c2ccc3cnc(N[C@@H](C)CO)cc3n2)c2cnn(C)c2)cc1F [I-24, N—((S)-(3-Fluoro-4-methoxyphenyl)(1-methyl-1H-pyrazol-4-yl)methyl)-7-((S)-1-hydroxypropan-2-ylamino)-1,6-naphthyridine-2-carboxamide] |
| 4.6 | 30.4 | – | COc1ccc([C@H](NC(=O)c2ccc3cnc(Nc4cc(C)nn4C)cc3c2)c2cnn(C)c2)cc1F [II-37, (S)-3-(1,3-Dimethyl-1H-pyrazol-5-ylamino)-N-((3-fluoro-4-methoxyphenyl)(1-methyl-1H-pyrazol-4-yl)methyl)isoquinoline-6-carboxamide] |
| 6.5 | 15.7 | – | CC[C@@H](NC(=O)c1ccc2cnc(Nc3cc(C)nn3C)cc2c1)c1ccc(Cl)c(F)c1 [II-46, (R)—N-(1-(4-Chloro-3-fluorophenyl)propyl)-3-(1,3-dimethyl-1H-pyrazol-5-ylamino)isoquinoline-6-carboxamide] |
| 5.95 | 476 | – | O=C(NCCc1ccccc1)c1ccc2cnc(NC3CCOCC3)cc2n1 [I-30, 7-(Tetrahydro-pyran-4-ylamino)-[1,6]naphthyridine-2-carboxylic acid phenethyl-amide] |
| – | – | 2.75 | COc1ccc([C@H](NC(=O)c2ccc3cnc(N[C@@H]4CCOC4)cc3n2)c2cnn(C)c2)cc1F (single isomer, unassigned) [I-53] |
| 2.29 | 9.97 | – | Cn1cc([C@@H](NC(=O)c2ccc3cnc(Nc4ccnn4C)cc3c2)c2ccc(Cl)c(F)c2)cn1 [II-15, (S)—N-((4-Chloro-3-fluorophenyl)(1-methyl-1H-pyrazol-4-yl)methyl)-3-(1-methyl-1H-pyrazol-5-ylamino)isoquinoline-6-carboxamide] |
| 1.86 | 18.7 | – | COc1ccc([C@H](NC(=O)c2ccc3cnc(NC4CCOCC4)cc3n2)c2cnn(C)c2)cc1F [I-21, (S)—N-((3-Fluoro-4-methoxyphenyl)(1-methyl-1H-pyrazol-4-yl)methyl)-7-(tetrahydro-2H-pyran-4-ylamino)-1,6-naphthyridine-2-carboxamide] |
| 4.04 | 16.3 | – | O=C(N[C@H](CO)c1ccc(Cl)c(F)c1)c1ccc2cnc(NC3CCOCC3)cc2n1 [I-5, 7-(Tetrahydro-pyran-4-ylamino)-[1,6]naphthyridine-2-carboxylic acid [(S)-1-(4-chloro-3-fluoro-phenyl)-2-hydroxy-ethyl]-amide] |
